# Measurements as given in patent US9708639B2, “Method for quantifying amino acids with pyrophosphate” (TOYAMA PREFECTURE, priority 2012, dated 2017).
# Assays:
# Assay in all cases: Qualitative test of AARS substrate specificity (molybdenum blue method)
# Format in all cases: biochemical, Thermotoga maritima MSB8 strain
# Design in all cases: key: +: Activity was detected; −: Activity was not detected
# Thermotoga-derived CysRS = biological target: T1, Thermotoga-derived CysRS (Thermotoga maritima, UniProt Q9WZH8); settings: Tyr 1 mM, other amino acids 5 mM; hydroxylamine 1000 mM; CysRS 0.3 mg/ml (8 mU/ml); 30° C.
# T1 construct: The amplification products were each inserted into pET-28a to obtain plasmids for expression of respective AARSs; His tag (C); made in house; host or cells: Escherichia coli BL21 (DE3)
# T1 sequence (Q9WZH8 1-460): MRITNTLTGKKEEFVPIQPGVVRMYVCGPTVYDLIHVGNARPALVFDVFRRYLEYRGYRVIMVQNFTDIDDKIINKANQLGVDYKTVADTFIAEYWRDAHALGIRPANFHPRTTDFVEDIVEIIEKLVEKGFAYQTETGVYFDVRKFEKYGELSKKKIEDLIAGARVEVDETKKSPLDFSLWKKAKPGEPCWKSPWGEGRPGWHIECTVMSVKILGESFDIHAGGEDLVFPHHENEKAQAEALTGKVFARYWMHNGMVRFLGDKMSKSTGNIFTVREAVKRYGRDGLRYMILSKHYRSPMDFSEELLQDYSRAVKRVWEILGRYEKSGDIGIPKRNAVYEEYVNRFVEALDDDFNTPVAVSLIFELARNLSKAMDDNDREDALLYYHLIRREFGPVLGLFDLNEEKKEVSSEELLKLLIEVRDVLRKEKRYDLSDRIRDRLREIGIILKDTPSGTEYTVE
# Method: (§1) A test sample containing an amino acid as the measurement subject and a reaction mixture for quantifying amino acid having the following composition were mixed. The mixture was left standing at 30° C. to allow the AARS reaction to advance. The mixture in a volume of 33 μl, 66 μl of water, and 1 μl of a 300 U/ml yeast pyrophosphatase solution were mixed, and left standing at room temperature for 20 minutes to allow the pyrophosphatase reaction to advance. Then, the reaction mixture was mixed with 100 μl of a color development solution A and 30 μl of a color developing solution B having the following compositions, then the mixture was left standing at room temperature for 5 minutes, and the absorbance was measured at 700 nm or 900 nm with a microplate reader.
# (§2) Reaction mixture for quantifying amino acid: 20 mM Tris-HCl (pH 7.0), 5 mM MgCl2, 2 mM ATP, and AARS (concentrations are final concentrations obtained after mixing with test sample)
# (§3) Color developing solution A: A solution obtained by mixing water and concentrated sulfuric acid at a ratio of 3:1 and dissolving (NH4)6Mo7O24.4H2O in the mixture at a concentration of 0.066 g/ml
# (§4) Color developing solution B: A solution obtained by mixing water and concentrated sulfuric acid at a ratio of 10000:7 and dissolving FeSO4.7H2O in the mixture at a concentration of 145 mg/ml
# (§5) Presence or absence of pyrophosphate generation was verified for the Thermotoga-derived CysRS, HisRS, LysRS, ProRS, SerRS, TrpRS, and TyrRS by using the AARS activity measurement method described in 9. and standard solutions of the various amino acids as test samples. AARSs were added to the reaction mixture at final concentrations of 0.3 (8 mU/ml), 0.1, 0.2 (3 mU/ml), 0.2, 0.1 (1 mU/ml), 0.1, 0.2 (20 mU/ml) mg/ml, respectively. The reaction mixtures were prepared so that the final concentration of Tyr was 1 mM, and the final concentrations of the other amino acids were 5 mM. As for the hydroxylamine concentration, it was added at a final concentration of 1000 mM for all the cases. Further, presence or absence of pyrophosphate production was also verified for the Thermus-derived MetRS and TyrRS by using the AARS activity measurement method described in 10. and standard solutions of the various amino acids as test samples. The reaction mixtures were prepared so that the final concentrations of the amino acids were 200 μM. Hydroxylamine was added at a final concentration of 400 mM.
# (§6) Detection or no detection of the activity in the reaction mixtures containing a combination of each AARS and amino acid are shown in Table 2. The symbol + indicates detection of the activity, and − indicates no detection of the activity.
# Thermotoga-derived HisRS = biological target: T2, Thermotoga-derived HisRS (Thermotoga maritima, UniProt Q9X0H5); settings: Tyr 1 mM, other amino acids 5 mM; hydroxylamine 1000 mM; HisRS 0.1 mg/ml; 30° C.
# T2 construct: His tag (C); made in house; host or cells: Escherichia coli BL21 (DE3)
# T2 sequence (Q9X0H5 1-420): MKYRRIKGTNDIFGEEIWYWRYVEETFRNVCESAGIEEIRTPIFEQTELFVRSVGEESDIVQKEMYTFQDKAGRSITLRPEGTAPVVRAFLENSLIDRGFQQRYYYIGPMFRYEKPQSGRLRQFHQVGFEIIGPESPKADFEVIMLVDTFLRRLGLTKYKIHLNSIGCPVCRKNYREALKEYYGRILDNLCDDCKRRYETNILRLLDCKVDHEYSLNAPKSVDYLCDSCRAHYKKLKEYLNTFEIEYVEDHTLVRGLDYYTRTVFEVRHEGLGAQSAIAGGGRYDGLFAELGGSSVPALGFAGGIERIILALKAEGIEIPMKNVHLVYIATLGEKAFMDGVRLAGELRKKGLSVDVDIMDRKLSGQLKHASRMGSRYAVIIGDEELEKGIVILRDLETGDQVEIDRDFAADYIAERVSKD
# Method: as §1, §2, §3, §4, §5, §6
# Thermotoga-derived ProRS = biological target: T3, Thermotoga-derived ProRS (Thermotoga maritima, UniProt Q9WYY4); settings: Tyr 1 mM, other amino acids 5 mM; hydroxylamine 1000 mM; ProRS 0.2 mg/ml; 30° C.
# T3 construct: His tag (C); made in house; host or cells: Escherichia coli BL21 (DE3)
# T3 sequence (Q9WYY4 1-577): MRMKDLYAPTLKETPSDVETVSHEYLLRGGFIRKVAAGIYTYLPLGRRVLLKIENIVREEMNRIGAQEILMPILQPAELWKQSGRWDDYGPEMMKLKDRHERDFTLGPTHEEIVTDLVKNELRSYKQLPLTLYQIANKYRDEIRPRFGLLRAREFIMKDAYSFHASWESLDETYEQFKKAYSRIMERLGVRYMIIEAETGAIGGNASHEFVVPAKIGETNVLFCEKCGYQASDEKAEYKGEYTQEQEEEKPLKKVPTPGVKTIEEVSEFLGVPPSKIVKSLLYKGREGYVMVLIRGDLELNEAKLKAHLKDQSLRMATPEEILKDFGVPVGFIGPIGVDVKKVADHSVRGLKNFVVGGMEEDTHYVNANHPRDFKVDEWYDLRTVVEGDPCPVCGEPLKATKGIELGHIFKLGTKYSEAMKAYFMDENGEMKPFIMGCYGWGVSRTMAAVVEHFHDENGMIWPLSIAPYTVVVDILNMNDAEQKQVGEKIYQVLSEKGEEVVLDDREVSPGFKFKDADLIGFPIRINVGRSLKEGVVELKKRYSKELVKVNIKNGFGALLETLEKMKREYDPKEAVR
# Method: as §1, §2, §3, §4, §5, §6
SMILES,"Detection of the activity (pyrophosphate generation), CysRS (Thermotoga-derived CysRS)","Detection of the activity (pyrophosphate generation), HisRS (Thermotoga-derived HisRS)","Detection of the activity (pyrophosphate generation), ProRS (Thermotoga-derived ProRS)"
"N[C@@H](CCC(=O)O)C(=O)O [Glu, L-glutamic acid]",−,−,−
"N[C@@H](Cc1ccc(O)cc1)C(=O)O [Tyr, L-tyrosine]",−,−,−
"NC(=O)C[C@H](N)C(=O)O [Asn, L-asparagine]",−,−,−
"CSCC[C@H](N)C(=O)O [Met, L-methionine]",−,−,−
"CC(C)[C@H](N)C(=O)O [Val, L-valine]",−,−,−
"NCCCC[C@H](N)C(=O)O [Lys, L-lysine]",−,−,−
"N[C@@H](Cc1c[nH]cn1)C(=O)O [His, L-histidine]",−,+,−
"CC(C)C[C@H](N)C(=O)O [Leu, L-leucine]",−,−,−
"N[C@@H](CO)C(=O)O [Ser, L-serine]",−,−,−
"NCC(=O)O [Gly, glycine]",−,−,−
"C[C@@H](O)[C@H](N)C(=O)O [Thr, L-threonine]",−,−,−
"N[C@@H](CC(=O)O)C(=O)O [Asp, L-aspartic acid]",−,−,−
"N[C@@H](CS)C(=O)O [Cys, L-cysteine]",+,−,−
"N[C@@H](Cc1ccccc1)C(=O)O [Phe, L-phenylalanine]",−,−,−
"NC(=O)CC[C@H](N)C(=O)O [Gln, L-glutamine]",−,−,−
"O=C(O)[C@@H]1CCCN1 [Pro, L-proline]",−,−,+
"C[C@H](N)C(=O)O [Ala, L-alanine]",−,−,−
"N[C@@H](Cc1c[nH]c2ccccc12)C(=O)O [Trp, L-tryptophan]",−,−,−
"N=C(N)NCCC[C@H](N)C(=O)O [Arg, L-arginine]",−,−,−
"CC[C@H](C)[C@H](N)C(=O)O [Ile, L-isoleucine]",−,−,−
